{"source": "patent US8329392B2", "about": "“Determination of testosterone by mass spectrometry” (Quest Diagnostics Investments Incorporated, priority 2003, dated 2012)", "key": {"[1]": {"experiment": "Sample stability of testosterone in sample pools", "format": "physicochemical, human", "conditions": "testosterone in samples", "from_the_text": "A blood serum sample is collected from a human patient. The serum is first de-proteinated using a 10% formic acid solution or a 1% trichloroacetic acid solution (in methanol). The deproteination also acts to release testosterone from SHBG, albumin, and other binding proteins. In other embodiments proteins can be removed from the blood with other acids such as a solution of 1% trichloroacetic acid in methanol.\nTo understand the stability of testosterone in samples, two levels of sample pool were subjected to the following conditions:\nFreeze/Thaw: 1, 2, 3, 4, and 5 cycles.\nRefrigerated (2-8° C.): 0, 1, 2, 4, 7, and 14 days.\nDuplicate runs of samples were run on two separate days."}, "[2]": {"molecular_target": "T1, Sex hormone-binding globulin (SHBG) (Homo sapiens, UniProt P04278)", "T1 sequence (P04278 30-402)": "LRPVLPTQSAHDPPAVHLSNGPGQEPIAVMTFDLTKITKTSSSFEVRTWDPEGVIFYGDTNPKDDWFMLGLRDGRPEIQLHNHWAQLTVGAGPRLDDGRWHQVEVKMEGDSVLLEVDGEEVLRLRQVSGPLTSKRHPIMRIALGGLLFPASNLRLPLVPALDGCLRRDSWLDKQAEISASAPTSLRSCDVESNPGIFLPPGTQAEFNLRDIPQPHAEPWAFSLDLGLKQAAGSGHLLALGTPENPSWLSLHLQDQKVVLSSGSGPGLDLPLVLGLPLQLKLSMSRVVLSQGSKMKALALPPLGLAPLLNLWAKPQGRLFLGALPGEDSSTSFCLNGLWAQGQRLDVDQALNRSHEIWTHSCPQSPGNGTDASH", "conditions": "SHBG vs albumin; cited from earlier work"}, "[3]": {"test_system": "plasma proteins", "conditions": "in circulation; cited from earlier work"}}, "data": [{"smiles": "C[C@]12CC[C@H]3[C@@H](CCC4=CC(=O)CC[C@@]43C)[C@@H]1CC[C@@H]2O", "note": "[Testosterone, 4 androsten 17β-ol-3-one]", "values": [{"measurement": "Stability", "setting": "[1]; Freeze Thaw Cycles, with no effect", "value": "Up to 5 with no effect Cycles"}, {"measurement": "Stability", "setting": "[1]; Refrigerated (0°-8° C.)", "value": 7, "unit": "days"}, {"measurement": "Stability", "setting": "[1]; Room Temp (18-25° C.)", "value": 4, "unit": "days"}, {"measurement": "binding capacity of SHBG for testosterone relative to that of albumin", "setting": "[2]", "value": "approximately 30,000 times"}, {"measurement": "testosterone circulating unbound to plasma proteins", "setting": "[3]", "value": "Less than 2.5%"}]}]}
